Results: patent publication US20210361771A1, “TERPENE COUPLING CONJUGATE” (LABORATOIRES ERIGER, priority 2020, published 2021)
Values joined by “and” are separate entries in the source; they are usually repeats but may differ in a detail not shown here. Equal entries are not always repeated.

What was measured:
[1] = Stability of the nanoparticulate suspensions over time (DLS); type: physicochemical; conditions: suspension stored at 23° C.
Method: The mean particle sizes were measured using the “Dynamic Light Scattering” (DLS) method on a Malvern-Panalytical Nano-Sizer ZS® at 25° C. with a detection angle of 173° and a wavelength of 633 nm. The reported sizes are determined by the mean of three measurements. The measurements were carried out in polystyrene cuvettes.
A solution of conjugate in EtOH (2 mg for 0.5 mL) is added dropwise to vigorously stirred MiliQ water (1 mL). The formation of nanoparticles is observed in that the solution becomes partially cloudy. The suspension that is thus obtained is transferred to a flask and the EtOH is evaporated on a rotary evaporator (200 mbar for 5 min, then 130 mbar for 1 min at 40° C. and at 50 revolutions per minute).
The residual suspension is transferred to a vial and stored at 23° C.
The samples are prepared as follows: 40 μL of the residual suspension is dissolved in 500 μL of MiliQ H2O.
The stability of the suspensions was measured over time and the results are summarized in Tables 2 and 3 and in the graph of FIG. 1 and in the graph of FIG. 2.

[2] = Influence of phytolization on the stability of retinol, HPLC monitoring; type: physicochemical; conditions: for A (mU), HPLC area, single measurement: 6 mg/L in H2O/iPrOH 1:1, 21° C., ambient light; for A (mU), HPLC area, Average: average of two measurements
Method: The HPLC analyzes were carried out with an “Ultimate 3000 system” chain, Dionex®, France on a C18 “Vintage series KR C18—5 μm-150×4.6 mm (Interchim®) column. The samples were detected by UV absorption at λ=325 nm.
Vitamin A (retinol) is known to be sensitive to oxygen and UV radiation. The phytolization process allows retinol to be stabilized.
The solutions of retinol and conjugate 9 in nanoparticulate form (6 mg/L in an H2O/iPrOH 1:1 mixture) were stored at 21° C. in ambient light and analyzed by HPLC over time (24 and 48 h).
The variation in the area of the compounds over time is shown over time (average of two measurements)—see Table 5 and the graph of FIG. 3.

| Compound | d (nm) ([1]; Time 1 h) | d (nm) ([1]; Time 24 h) | d (nm) ([1]; Time 168 h) | d (nm) ([1]; Time 196 h) | Variation of areas ([2]; t0) | A (mU), HPLC area, single measurement ([2]; t0) | A (mU), HPLC area, Average ([2]; t0) [mU] | A (mU), HPLC area, single measurement ([2]; t24 h) | A (mU), HPLC area, Average ([2]; t24 h) [mU] | Variation of areas ([2]; t24 h vs t0) | A (mU), HPLC area, single measurement ([2]; t48 h) | A (mU), HPLC area, Average ([2]; t48 h) [mU] | Variation of areas ([2]; t48 h vs t0) | Breakdown rate of free retinol compared with conjugate 9 ([2]; free form vs nanoparticulate conjugate, 48 h) |
| --- | --- | --- | --- | --- | --- | --- | --- | --- | --- | --- | --- | --- | --- | --- |
| CC1=C(/C=C/C(C)=C/C=C/C(C)=C/COC(=O)CCC(=O)OC/C=C(\C)CCC[C@H](C)CCC[C@H](C)CCCC(C)C)C(C)(C)CCC1 [Conjugate 9, Phytyl Retinyl Succinate] | 167.4 | 165.2 | 151.8 | 131.3 | 0.0000 | 4.1604 mU and 4.0495 mU | 4.1050 | 3.4609 mU and 3.3380 mU | 3.3995 | 0.1719 | 2.9536 mU and 2.9385 mU | 2.9461 | 0.2823 | – |
| CC1=C(/C=C/C(C)=C/C=C/C(C)=C/CO)C(C)(C)CCC1 [Retinol, retinol] | – | – | – | – | 0.0000 | 0.0502 mU and 0.0694 mU | 0.0598 | 0.0354 mU and 0.0360 mU | 0.0357 | 0.4030 | 0.0218 mU and 0.0273 mU | 0.0246 | 0.5895 | twice as quickly |
| Phytyl Diclofenate [Conjugate 4] | 270.0 | 369.7 | 502.4 | 436.8 | – | – | – | – | – | – | – | – | – | – |
| C/C(=C\COC(=O)CCC(=O)OC1CCC(C(C)(C)C)CC1)CCC[C@H](C)CCC[C@H](C)CCCC(C)C (mixture of isomers) [Conjugate 7, Phytyl (4-tert-butyl cyclohexyl) succinate] | 256.2 | 269.7 | 271.2 | 269.6 | – | – | – | – | – | – | – | – | – | – |
| Phytyl Ibuprofenate [Conjugate 3] | 132.9 | 154.5 | 156.6 | 164.1 | – | – | – | – | – | – | – | – | – | – |
